Data: the supplement of paper PMC4862054

Assays:
Conditions in all cases: incubation time: 72 h
Hs578T [1] = assay: normalised response (% of control), CellTiter-Glo; higher = more viable cells (100 = DMSO, 0 = benzethonium chloride kill control)
Experimental: (§1)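 DSRT, 72 h incubation, CellTox Green / CellTiter-Glo readout. Signal is normalised to DMSO and benzethonium chloride controls. Value is the normalised response at the highest dose.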

CAL-85-1 [2] = assay: as above
Experimental: as §1

HCC1937 [3] = assay: as above
Experimental: as §1

MCF-10A [4] = assay: as above
Experimental: as §1

HDQ-P1 [5] = assay: as above
Experimental: as §1

CAL-51 [6] = assay: as above
Experimental: as §1

SK-BR-3 = assay: as above
Experimental: as §1

BT-549 [7] = assay: as above
Experimental: as §1

MDA-MB-231 [8] = assay: as above
Experimental: as §1

MDA-MB-453 [9] = assay: as above
Experimental: as §1

BT-474 [10] = assay: as above
Experimental: as §1

CAL-120 [11] = assay: as above
Experimental: as §1

MFM-223 [12] = assay: as above
Experimental: as §1

DU-4475 [13] = assay: as above
Experimental: as §1

HCC1143 [14] = assay: as above
Experimental: as §1

HCC1599 [15] = assay: as above
Experimental: as §1

MDA-MB-468 [16] = assay: as above
Experimental: as §1

CAL-148 [17] = assay: as above
Experimental: as §1

MDA-MB-436 [18] = assay: as above
Experimental: as §1

Hs578T [19] = assay: normalised response (% of control), CellTox Green; higher = less cell death (100 = DMSO, 0 = benzethonium chloride kill control)
In short: (§2)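 CellTox Green fluorescence (485/520 nm) and, after 10 min at room temperature, CellTiter-Glo luminescence were read from breast cancer cell lines incubated 72 h in 384-well plates. Cells were seeded as 20 µl suspension onto compound at 5 concentrations in 10-fold steps over a 10,000-fold range chosen per compound. Each plate was normalised to 0.1 % DMSO (100) and a positive kill control (0). Values are normalised signals, one per concentration.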

CAL-85-1 [20] = assay: as above
In short: as §2

HCC1937 [21] = assay: as above
In short: as §2

MCF-10A [22] = assay: as above
In short: as §2

HDQ-P1 [23] = assay: as above
In short: as §2

CAL-51 [24] = assay: as above
In short: as §2

BT-549 [25] = assay: as above
In short: as §2

MDA-MB-231 [26] = assay: as above
In short: as §2

MDA-MB-453 [27] = assay: as above
In short: as §2

BT-474 [28] = assay: as above
In short: as §2

CAL-120 [29] = assay: as above
In short: as §2

MFM-223 [30] = assay: as above
In short: as §2

DU-4475 [31] = assay: as above
In short: as §2

HCC1143 [32] = assay: as above
In short: as §2

HCC1599 [33] = assay: as above
In short: as §2

MDA-MB-468 [34] = assay: as above
In short: as §2

CAL-148 [35] = assay: as above
In short: as §2

MDA-MB-436 [36] = assay: as above
In short: as §2

In the case of `N[C@@H](Cc1ccc(N(CCCl)CCCl)cc1)C(=O)O` [Melphalan] (12500 nM), the normalised response (Hs578T [1]) is reported as -0.1%, the normalised response (CAL-85-1 [2]) is reported as 0.13% and the normalised response (HCC1937 [3]) is reported as 3.24%. It also gave a normalised response (MCF-10A [4]) of 0.08%, a normalised response (HDQ-P1 [5]) of 0.84% and a normalised response (CAL-51 [6]) of 0.13%. It also gave a normalised response (SK-BR-3) of -0.14%, a normalised response (BT-549 [7]) of 0.03% and a normalised response (MDA-MB-231 [8]) of 0.1%. It also gave a normalised response (MDA-MB-453 [9]) of 0.28%, a normalised response (BT-474 [10]) of 2.03% and a normalised response (CAL-120 [11]) of 3.52%. For the same molecule, the normalised response (MFM-223 [12]) was 0.21%, the normalised response (DU-4475 [13]) was 0.09% and the normalised response (HCC1143 [14]) was 0.96%. For the same molecule, the normalised response (HCC1599 [15]) was 0.01%, the normalised response (MDA-MB-468 [16]) was 0.28% and the normalised response (CAL-148 [17]) was 1.23%. For the same molecule, the normalised response (MDA-MB-436 [18]) was 0.88%, the normalised response (Hs578T [19]) was -177% and the normalised response (CAL-85-1 [20]) was -78.3%. For the same molecule, the normalised response (HCC1937 [21]) was -39.4%, the normalised response (MCF-10A [22]) was -119% and the normalised response (HDQ-P1 [23]) was -14.5%. It also gave a normalised response (CAL-51 [24]) of -37.5%, a normalised response (BT-549 [25]) of -143% and a normalised response (MDA-MB-231 [26]) of -127%. The normalised response (MDA-MB-453 [27]) was -17.4%, the normalised response (BT-474 [28]) was -70.3% and the normalised response (CAL-120 [29]) was -41.5%. The normalised response (MFM-223 [30]) was -19.4%, the normalised response (DU-4475 [31]) was -7.06% and the normalised response (HCC1143 [32]) was -23.3%. It also gave a normalised response (HCC1599 [33]) of 18.8%, a normalised response (MDA-MB-468 [34]) of -317% and a normalised response (CAL-148 [35]) of -8.15%. For the same molecule, the normalised response (MDA-MB-436 [36]) was -19.3%.

`CN1CCc2c(c3ccccc3n2Cc2ccc(C(=O)NO)cc2)C1` [Tubastatin A] (10000 nM) showed a normalised response (Hs578T [1]) of 87.9%, a normalised response (CAL-85-1 [2]) of 72.5% and a normalised response (HCC1937 [3]) of 70.1%. It also gave a normalised response (MCF-10A [4]) of 98.5%, a normalised response (HDQ-P1 [5]) of 73.3% and a normalised response (CAL-51 [6]) of 39.3%. It also gave a normalised response (SK-BR-3) of 42.2%, a normalised response (BT-549 [7]) of 75% and a normalised response (MDA-MB-231 [8]) of 72%. It also gave a normalised response (MDA-MB-453 [9]) of 57.4%, a normalised response (BT-474 [10]) of 75.4% and a normalised response (CAL-120 [11]) of 84.1%. It also gave a normalised response (MFM-223 [12]) of 87%, a normalised response (DU-4475 [13]) of 79.9% and a normalised response (HCC1143 [14]) of 47.1%. It also gave a normalised response (HCC1599 [15]) of 85.3%, a normalised response (MDA-MB-468 [16]) of 66.4% and a normalised response (CAL-148 [17]) of 77.3%. It also gave a normalised response (MDA-MB-436 [18]) of 72.3%, a normalised response (Hs578T [19]) of 122% and a normalised response (CAL-85-1 [20]) of 80.3%. It also gave a normalised response (HCC1937 [21]) of 61.3%, a normalised response (MCF-10A [22]) of 99.6% and a normalised response (HDQ-P1 [23]) of 106%. For the same molecule, the normalised response (CAL-51 [24]) was -14.9%, the normalised response (BT-549 [25]) was 87.1% and the normalised response (MDA-MB-231 [26]) was 49.3%. The normalised response (MDA-MB-453 [27]) was 91.3%, the normalised response (BT-474 [28]) was 86.9% and the normalised response (CAL-120 [29]) was 99.3%. It also gave a normalised response (MFM-223 [30]) of 84.2%, a normalised response (DU-4475 [31]) of 93.7% and a normalised response (HCC1143 [32]) of 55.3%. The normalised response (HCC1599 [33]) was 90.1%, the normalised response (MDA-MB-468 [34]) was 41.7% and the normalised response (CAL-148 [35]) was 80.1%. For the same molecule, the normalised response (MDA-MB-436 [36]) was 79.8%.

With `CCc1c(C(=O)C(N)=O)c2c(OCC(=O)O)cccc2n1Cc1ccccc1` [Varespladib] (10000 nM) the normalised response (Hs578T [1]) was 99.3%, the normalised response (CAL-85-1 [2]) was 104% and the normalised response (HCC1937 [3]) was 96.7%. For the same molecule, the normalised response (MCF-10A [4]) was 100%, the normalised response (HDQ-P1 [5]) was 98.8% and the normalised response (CAL-51 [6]) was 97.3%. For the same molecule, the normalised response (SK-BR-3) was 103%, the normalised response (BT-549 [7]) was 99.8% and the normalised response (MDA-MB-231 [8]) was 95.7%. The normalised response (MDA-MB-453 [9]) was 102%, the normalised response (BT-474 [10]) was 99.2% and the normalised response (CAL-120 [11]) was 115%. It also gave a normalised response (MFM-223 [12]) of 105%, a normalised response (DU-4475 [13]) of 91.3% and a normalised response (HCC1143 [14]) of 101%. The normalised response (HCC1599 [15]) was 95.1%, the normalised response (MDA-MB-468 [16]) was 97.7% and the normalised response (CAL-148 [17]) was 109%. It also gave a normalised response (MDA-MB-436 [18]) of 101%, a normalised response (Hs578T [19]) of 121% and a normalised response (CAL-85-1 [20]) of 93.6%. For the same molecule, the normalised response (HCC1937 [21]) was 72.7%, the normalised response (MCF-10A [22]) was 110% and the normalised response (HDQ-P1 [23]) was 97.1%. For the same molecule, the normalised response (CAL-51 [24]) was 108%, the normalised response (BT-549 [25]) was 103% and the normalised response (MDA-MB-231 [26]) was 102%. The normalised response (MDA-MB-453 [27]) was 101%, the normalised response (BT-474 [28]) was 99.6% and the normalised response (CAL-120 [29]) was 104%. For the same molecule, the normalised response (MFM-223 [30]) was 90%, the normalised response (DU-4475 [31]) was 97.5% and the normalised response (HCC1143 [32]) was 103%. For the same molecule, the normalised response (HCC1599 [33]) was 102%, the normalised response (MDA-MB-468 [34]) was 109% and the normalised response (CAL-148 [35]) was 98.3%. For the same molecule, the normalised response (MDA-MB-436 [36]) was 105%.
